Test systems include ACHN renal; HOP-92 NSCLC; 786-0 renal; LOX IMVI melanoma; COLO 205 colon; NCI-H522 lung; MCF7 breast; MDA-MB-231 breast; SR leukemia.
Common to all, as to assay: NCI tumour cell line growth inhibition, 48 h

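96-well plates; 48 h exposure; 5 concentrations. Endpoints by linear interpolation between flanking doses. Not reached: highest tested concentration assigned. Here, GI50 denotes the concentration required for 50% inhibition of growth. TGI: concentration producing complete growth inhibition.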 Bounds are passed on as bounds.

In the case of `CCCCCCCCCCCCCC(=O)CSCCNC(=O)CCNC(=O)[C@@H](O)C(C)(C)COP(=O)(O)OP(=O)(O)OCC1OC(n2cnc3c(N)ncnc32)C(O)C1OP(=O)(O)O` (stereo not given in full), the TGI was determined as 38 µM in the assay on ACHN renal; 24.5 µM in the assay on HOP-92 NSCLC; 30.1 µM with 786-0 renal; 37.2 µM with LOX IMVI melanoma; 29.4 µM in the assay on COLO 205 colon; 25.5 µM in the assay with NCI-H522 lung.
Turning to `CCOc1ccc(O)cc1[P+](c1ccccc1)(c1ccccc1)c1ccccc1`, the TGI in the assay on ACHN renal was determined as 81.7 µM; in the assay on 786-0 renal, 20.2 µM; with LOX IMVI melanoma it was 13.6 µM; in the assay with COLO 205 colon, 10 µM; in the assay on NCI-H522 lung, 6.39 µM.
Consider `O=C(CC(=O)c1cccc(Cl)c1)c1cccc(Cl)c1`, for which the GI50 was 2.71 µM with ACHN renal; 1.72 µM in the assay on MCF7 breast; 1.95 µM in the assay on HOP-92 NSCLC; 3.86 µM in the assay on 786-0 renal; 1.37 µM in the assay with LOX IMVI melanoma; 3.97 µM in the assay on COLO 205 colon. The GI50 was 2.72 µM with NCI-H522 lung and 2.67 µM in the assay on MDA-MB-231 breast. For the same compound, the TGI in the assay with ACHN renal, in the assay on MCF7 breast, with HOP-92 NSCLC, in the assay with 786-0 renal, in the assay on LOX IMVI melanoma and in the assay on COLO 205 colon was above 100 µM throughout. Besides, the TGI with NCI-H522 lung and in the assay with MDA-MB-231 breast was above 100 µM throughout.
On to `CN(/N=C/c1cccc2cccnc12)c1c([N+](=O)[O-])cc([N+](=O)[O-])cc1[N+](=O)[O-]`, for which the TGI with ACHN renal, with HOP-92 NSCLC, in the assay with 786-0 renal, in the assay on LOX IMVI melanoma and in the assay with COLO 205 colon was above 100 µM each time.
For the compound `CCOC(=O)/C(=C/c1ccc(N(CCC#N)CCC#N)cc1C)NC(=O)/C=C/c1ccccc1`, the TGI in the assay with ACHN renal, with 786-0 renal, in the assay with LOX IMVI melanoma, with COLO 205 colon and in the assay on NCI-H522 lung was above 100 µM throughout.
As for `Cc1cc(=O)[nH]c(CNC(=O)c2cccc(C(=O)NCc3cc(=O)[nH]c(C)n3)c2)n1`, the TGI with ACHN renal, in the assay with HOP-92 NSCLC, in the assay on 786-0 renal, in the assay with LOX IMVI melanoma, in the assay with COLO 205 colon and in the assay on NCI-H522 lung was above 100 µM each time.
As to `O=C(CCc1nnc2s/c(=C\c3ccccc3Cl)c(=O)n12)Nc1cc(Cl)ccc1Cl`, the TGI in the assay on ACHN renal, with HOP-92 NSCLC, in the assay on 786-0 renal, with LOX IMVI melanoma, in the assay with SR leukemia and in the assay with NCI-H522 lung was above 100 µM throughout.
For `COC1OC(C)C2OC(C)(C)OC2C1OC(C)=O` (stereo not given), the TGI with ACHN renal, in the assay with HOP-92 NSCLC, with 786-0 renal, in the assay on LOX IMVI melanoma, in the assay on SR leukemia and with COLO 205 colon was above 100 µM throughout. The compound also registered a TGI in the assay with NCI-H522 lung above 100 µM.
With `CC(=O)NNc1nc(C)c(C(=O)NNC(=O)C(=O)Nc2ccc([N+](=O)[O-])cc2C#N)s1`, the TGI with ACHN renal, in the assay on 786-0 renal, in the assay on LOX IMVI melanoma, in the assay with SR leukemia, with COLO 205 colon and with NCI-H522 lung was above 100 µM in each case.
With `CC1NC(=O)C2=C1C(N)=NC(=O)C2` (stereo not given), the TGI in the assay on ACHN renal, in the assay on HOP-92 NSCLC, with 786-0 renal, in the assay on LOX IMVI melanoma, in the assay with SR leukemia and in the assay with COLO 205 colon was above 100 µM each time. The TGI in the assay with NCI-H522 lung is above 100 µM.
`CCN(CC)CCn1[nH]c2c3ccc(=O)cc3sc3c(NCCN)ccc1c32`: the TGI amounted to 2.54 µM in the assay with ACHN renal; 3.96 µM with HOP-92 NSCLC; 8.94 µM in the assay with 786-0 renal; 1.03 µM in the assay on LOX IMVI melanoma; 1.71 µM in the assay on SR leukemia.
Regarding `CC(C)(C)OC(=O)c1cccnc1/C=N/O`, the TGI in the assay on ACHN renal, in the assay with HOP-92 NSCLC, with 786-0 renal, with LOX IMVI melanoma, in the assay with SR leukemia and in the assay with COLO 205 colon was above 100 µM throughout. The compound also registered a TGI in the assay with NCI-H522 lung above 100 µM.
With `NCCCCCCNCc1cccc2ccccc12`, the TGI in the assay on ACHN renal, in the assay on 786-0 renal, in the assay on LOX IMVI melanoma, in the assay on SR leukemia, with COLO 205 colon and with NCI-H522 lung was above 100 µM throughout.
Regarding `CC[N+](C)(CC)CC(C)(C)C(=O)/C=C/c1ccc(/C=C/C(=O)C(C)(C)C[N+](C)(CC)CC)cc1`, the TGI in the assay with ACHN renal, with HOP-92 NSCLC, in the assay with 786-0 renal, in the assay with LOX IMVI melanoma, in the assay with COLO 205 colon and in the assay with NCI-H522 lung was above 100 µM in each case.
As to `CN(C)CCNC(=O)c1cccc2ccc(-c3ccc(-c4ccccc4)cc3)nc12`, the TGI in the assay with ACHN renal is 12.8 µM; in the assay on HOP-92 NSCLC, 11.8 µM; in the assay with 786-0 renal, 3.39 µM; in the assay with LOX IMVI melanoma, 3.09 µM; in the assay on SR leukemia, 4.64 µM; in the assay on COLO 205 colon, 3 µM. The compound also gave a TGI with NCI-H522 lung of 4.33 µM.
As to `O=C1C2C3C=C4c5ccccc5N(c5ccccc5)C4(C2C(=O)N1c1ccc(Br)cc1)[C@H]1C(=O)N(c2ccc(Br)cc2)C(=O)[C@@H]31` (stereo not given in full), the TGI in the assay on HOP-92 NSCLC, in the assay on 786-0 renal, in the assay with LOX IMVI melanoma, with SR leukemia, with COLO 205 colon and with NCI-H522 lung was above 100 µM each time.
Regarding `O=C(C/C(CCC(=O)N(Cc1ccccc1)Cc1ccccc1)=N/Nc1ccc([N+](=O)[O-])cc1[N+](=O)[O-])c1ccccc1`, the TGI with HOP-92 NSCLC, in the assay on 786-0 renal, with LOX IMVI melanoma, in the assay with COLO 205 colon and with NCI-H522 lung was above 100 µM in each case.
`Cc1nc2sccn2c1C(=O)NC(=O)Nc1ccc(Cl)cc1`: the TGI in the assay with ACHN renal is above 100 µM; in the assay with HOP-92 NSCLC, 74.3 µM; in the assay with 786-0 renal, above 100 µM; in the assay with LOX IMVI melanoma, above 100 µM; in the assay on COLO 205 colon, above 100 µM; in the assay on NCI-H522 lung it was above 100 µM.
Consider `Cn1c(=O)c2[nH]cnc2n(CC(N)=O)c1=O`, for which the TGI in the assay on ACHN renal, with HOP-92 NSCLC, in the assay on 786-0 renal, in the assay on SR leukemia, with COLO 205 colon and with NCI-H522 lung was above 100 µM each time.
As to `COC(=O)/C=c1\s/c(=C\C(=O)OC)c2ccccc12`, the TGI in the assay on ACHN renal, in the assay on HOP-92 NSCLC, with 786-0 renal, in the assay on LOX IMVI melanoma, in the assay with COLO 205 colon and with NCI-H522 lung was above 100 µM throughout.
Consider `COc1cc2c(cc1C1=NC(C)(C)CO1)OCO2`, for which the TGI in the assay on ACHN renal, in the assay with HOP-92 NSCLC, in the assay with 786-0 renal, in the assay with SR leukemia, with COLO 205 colon and in the assay with NCI-H522 lung was above 100 µM throughout.
As for `N#Cc1ccc2cc3c(cc2c1)OCO3`, the TGI in the assay with ACHN renal, in the assay with HOP-92 NSCLC, with 786-0 renal, in the assay with LOX IMVI melanoma, in the assay with COLO 205 colon and in the assay with NCI-H522 lung was above 100 µM throughout.
For the compound `COC1C2c3cc4c(cc3CC(C#N)(c3ccccc32)N1C(=O)c1ccccc1)OCO4` (stereo not given), the TGI in the assay on ACHN renal, in the assay with HOP-92 NSCLC, in the assay with 786-0 renal, in the assay on LOX IMVI melanoma, in the assay on SR leukemia and in the assay with COLO 205 colon was above 100 µM in each case. The TGI in the assay with NCI-H522 lung is above 100 µM.
`C/C=C/COC(=O)CO[N+](=O)[O-]`: the TGI in the assay on ACHN renal, in the assay on HOP-92 NSCLC, with 786-0 renal, in the assay with LOX IMVI melanoma, in the assay with SR leukemia and in the assay on COLO 205 colon was above 100 µM throughout. Further, the TGI in the assay on NCI-H522 lung is above 100 µM.
Consider `S=C=NCCc1ccccc1`, for which the TGI is 3 µM with ACHN renal; 1.05 µM in the assay on 786-0 renal; 0.66 µM with LOX IMVI melanoma; 86.9 µM in the assay with SR leukemia; 3.07 µM in the assay on COLO 205 colon; 0.58 µM in the assay on NCI-H522 lung.
`O=c1[nH]c(=O)n(C2OC(CO)C(O)C2O)cc1OCC(F)(F)F` (stereo not given): the TGI in the assay on ACHN renal, with HOP-92 NSCLC, in the assay on 786-0 renal, with LOX IMVI melanoma, with SR leukemia and with COLO 205 colon was above 100 µM throughout. Moreover, in the assay on NCI-H522 lung, the TGI was above 100 µM.
Turning to `C=CCOC(=O)C1CCC(=O)N1C(=O)C(Cl)Cl` (stereo not given), the TGI with ACHN renal, with HOP-92 NSCLC, in the assay on 786-0 renal, in the assay on LOX IMVI melanoma, with COLO 205 colon and with NCI-H522 lung was above 100 µM throughout.
For the compound `c1ccc(P(=C2c3ccccc3-c3ccccc32)(c2ccccc2)c2ccccc2)cc1`, the TGI in the assay with ACHN renal was 9.82 µM; in the assay on HOP-92 NSCLC, 7.4 µM; in the assay with 786-0 renal it was 34 µM; with LOX IMVI melanoma, 9.38 µM; in the assay on COLO 205 colon it was 15 µM; in the assay with NCI-H522 lung it was 4.62 µM.
